Test results published in US20250129430A1, “HIGH ATP-AFFINITY PROTEIN AS THERAPEUTIC TARGET FOR INTRACTABLE CANCER MOLECULAR SUBTYPES AND INHIBITOR THEREOF” (VeraVerse Co., Ltd., priority 2021, published 2025).
Where a name gives a salt, the structure may show the parent alone.

Key:
Format in all cases: cell-based, human
[1] = test system: SNU484; assay: Cell viability drug screen, 12-point dose-response AUC; settings: SNU484 cells (SEM subtype); 72 hours
Procedure, shortened: (§1)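 AUC comes from 12-point half-log dose–response curves, normalized to DMSO-treated cells and integrated trapezoidally, repeats averaged. Luminescent viability read after 72 h compound exposure at 37 °C; cells plated 5×10^3 per well 24 h before dosing.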

[2] = test system: SNU638; assay: as above; settings: SNU638 cells; 72 hours
Procedure, shortened: as §1

[3] = test system: SNU668; assay: as above; settings: SNU668 cells (SEM subtype); 72 hours
Procedure, shortened: as §1

[4] = test system: NCC24; assay: as above; settings: NCC24 cells; 72 hours
Procedure, shortened: as §1

[5] = test system: MKN45; assay: as above; settings: MKN45 cells (non-SEM subtype); 72 hours
Procedure, shortened: (§2)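 Dose-response AUC reflects 72 h drug exposure of gastric cancer cells in a 12-point, half-log format, with viability read by luminescence and normalized to DMSO (0.5%).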

[6] = test system: SNU620; assay: as above; settings: SNU620 cells; 72 hours
Procedure, shortened: as §1

[7] = test system: AGS; assay: as above; settings: AGS cells (non-SEM subtype); 72 hours
Procedure, shortened: as §2

[8] = test system: KATO3; assay: as above; settings: KATO3 cells; 72 hours
Procedure, shortened: as §1

[9] = test system: SNU1967; assay: as above; settings: SNU1967 cells; 72 hours
Procedure, shortened: as §1

[10] = test system: NCC19; assay: as above; settings: NCC19 cells; 72 hours
Procedure, shortened: as §1

[11] = test system: SNU1; assay: as above; settings: SNU1 cells; 72 hours
Procedure, shortened: as §1

[12] = test system: NCI_N87; assay: as above; settings: NCI_N87 cells; 72 hours
Procedure, shortened: as §1

[13] = test system: SK4; assay: as above; settings: SK4 cells (SEM subtype); 72 hours
Procedure, shortened: as §1

[14] = test system: OCUM1; assay: as above; settings: OCUM1 cells; 72 hours
Procedure, shortened: as §1

[15] = test system: MKN74; assay: as above; settings: MKN74 cells; 72 hours
Procedure, shortened: as §2

[16] = test system: MKN28; assay: as above; settings: MKN28 cells; 72 hours
Procedure, shortened: as §1

[17] = test system: SNU601; assay: as above; settings: SNU601 cells; 72 hours
Procedure, shortened: as §1

[18] = test system: YCC3; assay: as above; settings: YCC3 cells; 72 hours
Procedure, shortened: as §1

[19] = test system: YCC11; assay: as above; settings: YCC11 cells (SEM subtype); 72 hours
Procedure, shortened: as §1

[20] = test system: SNU1750; assay: as above; settings: SNU1750 cells (SEM subtype); 72 hours
Procedure, shortened: as §1

[21] = test system: NCC59; assay: as above; settings: NCC59 cells; 72 hours
Procedure, shortened: as §1

[22] = test system: MKN1; assay: as above; settings: MKN1 cells; 72 hours
Procedure, shortened: as §1

[23] = test system: Hs746T; assay: as above; settings: Hs746T cells (SEM subtype); 72 hours
Procedure, shortened: as §1

[24] = test system: SNU16; assay: as above; settings: SNU16 cells; 72 hours
Procedure, shortened: as §1

[25] = test system: NCC20; assay: as above; settings: NCC20 cells; 72 hours
Procedure, shortened: as §1

[26] = test system: SNU216; assay: as above; settings: SNU216 cells (non-SEM subtype); 72 hours
Procedure, shortened: as §2

[27] = test system: SNU719; assay: as above; settings: SNU719 cells; 72 hours
Procedure, shortened: as §2

[28] = test system: YCC2; assay: as above; settings: YCC2 cells; 72 hours
Procedure, shortened: as §1

[29] = test system: non-SEM-type gastric cancer cell line; assay: Cell viability drug screen, AUC summary over non-SEM-type lines; settings: in the non-SEM-type gastric cancer cell line
[30] = test system: FU97; assay: Cell viability drug screen, 12-point dose-response AUC; set-up: Average Area Under the Viability Curve (AUC), AUC norm value: scale not given here; settings: FU97 cells; 72 hours
Procedure, shortened: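 Trapezoidal AUC of a 12-point, DMSO-normalized dose-response curve. Luminescent viability was measured after 72 h of exposure at 37° C to half-log serial dilutions (0.5% DMSO control), dosed 24 h after plating FU97 cells at 5×10^3 per well.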

SMILES | Average Area Under the Viability Curve (AUC), AUC norm value [1] | Average Area Under the Viability Curve (AUC), AUC norm value [2] | Average Area Under the Viability Curve (AUC), AUC norm value [3] | Average Area Under the Viability Curve (AUC), AUC norm value [4] | Average Area Under the Viability Curve (AUC), AUC norm value [5] | Average Area Under the Viability Curve (AUC), AUC norm value [6] | Average Area Under the Viability Curve (AUC), AUC norm value [7] | Average Area Under the Viability Curve (AUC), AUC norm value [8] | Average Area Under the Viability Curve (AUC), AUC norm value [9] | Average Area Under the Viability Curve (AUC), AUC norm value [10] | Average Area Under the Viability Curve (AUC), AUC norm value [11] | Average Area Under the Viability Curve (AUC), AUC norm value [12] | Average Area Under the Viability Curve (AUC), AUC norm value [13] | Average Area Under the Viability Curve (AUC), AUC norm value [14] | Average Area Under the Viability Curve (AUC), AUC norm value [15] | Average Area Under the Viability Curve (AUC), AUC norm value [16] | Average Area Under the Viability Curve (AUC), AUC norm value [17] | Average Area Under the Viability Curve (AUC), AUC norm value [18] | Average Area Under the Viability Curve (AUC), AUC norm value [19] | Average Area Under the Viability Curve (AUC), AUC norm value [20] | also measured
COC1=CC(c2cc3ccccc3[nH]2)=N/C1=C\c1[nH]c(C)cc1C [Obatoclax mesylate (GX15-070), Obatoclax mesylate] | −1.4 | −0.5094 | −0.2715 | 0.2511 | 0.9313 | 0.8129 | −0.9005 | 1.383 | −0.4093 | 1.604 | 0.5238 | 0.636 | −1.531 | 0.1302 | −1.051 | −0.3769 | 2.791 | 2.281 | −0.8407 | −0.872 | Average Area Under the Viability Curve (AUC), AUC norm value [21]: 2.5912; Average Area Under the Viability Curve (AUC), AUC norm value [22]: 0.7857; Average Area Under the Viability Curve (AUC), AUC norm value [23]: 0; Average Area Under the Viability Curve (AUC), AUC norm value [24]: 1.841; Average Area Under the Viability Curve (AUC), AUC norm value [25]: −0.9868; Average Area Under the Viability Curve (AUC), AUC norm value [26]: −0.1398; Average Area Under the Viability Curve (AUC), AUC norm value [27]: 2.585; Average Area Under the Viability Curve (AUC), AUC norm value [28]: −0.5916; AUC value [29]: high; Average Area Under the Viability Curve (AUC), AUC norm value [30]: −1.5029
Cc1ccc([N+](=O)[O-])cc1S(=O)(=O)N(C)/N=C/c1cnc2ccc(Br)cn12 [PIK-75] | −0.9469 | 1.312 | −0.428 | −0.07825 | 1.17 | 0.7882 | −1.2576 | 3.793 | −0.3048 | 0.3535 | −0.3397 | −0.1238 | −1.009 | 0.5105 | 0.2052 | 0.05865 | 1.999 | 1.723 | −0.5398 | 0 | Average Area Under the Viability Curve (AUC), AUC norm value [21]: −0.1565; Average Area Under the Viability Curve (AUC), AUC norm value [22]: −0.03458; Average Area Under the Viability Curve (AUC), AUC norm value [23]: 0.1171; Average Area Under the Viability Curve (AUC), AUC norm value [24]: −1.485; Average Area Under the Viability Curve (AUC), AUC norm value [25]: −0.4913; Average Area Under the Viability Curve (AUC), AUC norm value [26]: 0.8132; Average Area Under the Viability Curve (AUC), AUC norm value [27]: 5.726; Average Area Under the Viability Curve (AUC), AUC norm value [28]: 1.289; AUC value [29]: high; Average Area Under the Viability Curve (AUC), AUC norm value [30]: −0.5267
